Source: patent US7807664B2, “4,4-difluoro-1,2,3,4-tetrahydro-5H-1-benzazepine derivative or salt thereof” (Astella Pharma Inc., priority 2003, dated 2010)

How the values were obtained:
human V2 receptor = target: T1, human V2 receptor (Homo sapiens, UniProt P30518); test: V2 Receptor Binding Test; conditions: human V2 expression CHO cell membrane, [3H]-vasopressin 0.5 nM, 25° C. 60 minutes; read-out: Affinity for V2 receptor Ki
T1 construct: expressed in transfected cells; host or cells: CHO cells (membrane preparation)
T1 sequence (P30518 whole entry): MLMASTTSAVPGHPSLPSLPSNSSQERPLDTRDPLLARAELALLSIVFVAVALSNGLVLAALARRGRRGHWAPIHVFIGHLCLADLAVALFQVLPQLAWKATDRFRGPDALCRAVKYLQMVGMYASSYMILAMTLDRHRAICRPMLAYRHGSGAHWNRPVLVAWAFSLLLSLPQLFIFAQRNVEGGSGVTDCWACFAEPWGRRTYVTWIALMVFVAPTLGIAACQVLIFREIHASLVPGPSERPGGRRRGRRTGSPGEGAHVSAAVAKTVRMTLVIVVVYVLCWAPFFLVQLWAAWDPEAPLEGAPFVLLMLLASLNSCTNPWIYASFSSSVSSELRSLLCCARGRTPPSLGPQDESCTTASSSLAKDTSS
Protocol: (1) V2 Receptor Binding Test
A human V2 expression CHO cell membrane sample was prepared in accordance with the method of Tahara et al. (British Journal of Pharmacology, Vol. 125, pp. 1463-1470, 1998). A 2 μg portion of the membrane sample was incubated together with [^3H]-arginine vasopressin (to be referred simply to as “[^3H]-vasopressin” hereinafter) (0.5 nM, specific activity=75 Ci/mmol) and each compound to be tested (10^−10 to 10^−5 M) at 25° C. for 60 minutes in 250 μl in total volume of 50 mM Tris-HCl buffer (pH=7.4) containing 10 mM MgCl2 and 0.1% bovine serum albumin (BSA). Thereafter, free [^3H]-vasopressin and receptor-bonded [^3H]-vasopressin were separated using a cell harvester, and the receptor-bonded [^3H]-vasopressin was adhered onto a uni-filter plate GF/B glass filter. After sufficient drying, this was mixed with a microplate scintillation cocktail, amount of the receptor-bonded [^3H]-vasopressin was measured using top count and the inhibition ratio was calculated by the following formula. Inhibition ratio(%)=100−(C1−B1)/(C0−B1)×100 C1: Amount of [^3H]-vasopressin bonded to the membrane sample when [^3H]-vasopressin and the receptor membrane sample are treated in the coexistence of test compound having known concentration C0: Amount of [^3H]-vasopressin bonded to the membrane sample when [^3H]-vasopressin and the receptor membrane sample are treated in the absence of test compound B1: Amount of [^3H]-vasopressin bonded to the membrane sample when [^3H]-vasopressin and the receptor membrane sample are treated in the coexistence of excess amount of vasopressin (10^−6 M)
Concentration of each test compound by which the inhibition ratio becomes 50% (IC50 value) was calculated by the aforementioned formula, and affinity of the test compound for the receptor, namely dissociation constant (Ki), was calculated from this by the following formula. Dissociation constant(Ki)=IC50/(1+[L]/Kd) [L]: Concentration of [^3H]-vasopressin Kd: Dissociation constant of [^3H]-vasopressin against the receptor obtained by a saturation binding test

CYP2C9 = CYP2C9 (Homo sapiens, UniProt P11712); test: Cytochrome P450 (2C9) Enzyme Inhibition Test; format: in vitro ADME; conditions: substrate 7-methoxy-4-(trifluoromethyl)cumarin, 37° C. 45 minutes; read-out: CYP2C9 inhibitory activity IC50
CYP2C9, sequence (P11712 whole entry): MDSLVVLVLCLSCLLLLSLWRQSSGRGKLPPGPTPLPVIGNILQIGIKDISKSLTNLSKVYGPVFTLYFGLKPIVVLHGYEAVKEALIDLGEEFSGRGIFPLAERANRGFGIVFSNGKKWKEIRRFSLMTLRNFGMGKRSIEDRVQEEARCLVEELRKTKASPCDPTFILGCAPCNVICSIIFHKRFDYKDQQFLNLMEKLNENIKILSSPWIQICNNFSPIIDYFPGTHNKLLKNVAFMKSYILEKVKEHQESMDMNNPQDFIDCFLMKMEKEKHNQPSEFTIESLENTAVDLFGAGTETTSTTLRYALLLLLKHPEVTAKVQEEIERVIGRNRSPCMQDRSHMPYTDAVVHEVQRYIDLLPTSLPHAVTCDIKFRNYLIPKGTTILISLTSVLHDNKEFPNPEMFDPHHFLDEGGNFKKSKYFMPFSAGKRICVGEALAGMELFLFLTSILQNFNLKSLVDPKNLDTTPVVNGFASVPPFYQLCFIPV
Protocol: (§1) Using a 96 well plate, 7-benzyloxy-4-(trifluoromethyl)cumarin as the substrate (5×10^−5 M), each test compound (from 4.9×10^−8 to 5×10^−5 M) and the enzyme (5×10^−9 M) were incubated at 37° C. for 30 minutes in 200 μl in total volume of 200 mM phosphate buffer (pH=7.4) containing 8.2 μM NADP+, 0.41 mM glucose-6-phosphate, 0.41 mM MgCl2 and 0.4 units/ml glucose-6-phosphate dehydrogenase. Thereafter, the reaction was stopped by adding 0.5 M 2-amino-2-hydroxymethyl-1,3-propanediol aqueous solution containing 80% acetonitrile, and the fluorescence intensity (excitation wavelength; 409 nm, fluorescence wavelength; 530 nm) was measured using a fluorescence plate reader. The inhibition ratio was calculated based on the following formula, and concentration of each test compound by which the inhibition ratio becomes 50% (IC50) was obtained. Inhibition ratio (%)=100−(C1−B1)/(C0−B1)×100 C1: Fluorescence intensity in the presence of test compound having known concentration, enzyme and substrate C0: Fluorescence intensity in the absence of test compound and in the presence of enzyme and substrate B1: Fluorescence intensity of blank well (5) Cytochrome P450 (2C9) Enzyme Inhibition Test
(§2) This test was carried out in accordance with the method of Crespi et al. (Analytical Biochemistry, 248, 188-190, 1997).
Using a 96 well plate, 7-methoxy-4-(trifluoromethyl)cumarin as the substrate (7.5×10^−5 M), each test compound (from 4.9×10^−8 to 5×10^−5 M) and the enzyme (10^−8 M) were incubated at 37° C. for 45 minutes in 200 μl in total volume of 200 mM phosphate buffer (pH=7.4) containing 8.2 μM NADP+, 0.41 mM glucose-6-phosphate, 0.41 mM MgCl2 and 0.4 units/ml glucose-6-phosphate dehydrogenase. Thereafter, the reaction was stopped by adding 0.5 M 2-amino-2-hydroxymethyl-1,3-propanediol aqueous solution containing 80% acetonitrile, and the fluorescence intensity (excitation wavelength; 409 nm, fluorescence wavelength; 530 nm) was measured using a fluorescence plate reader. The inhibition ratio was calculated based on the same formula of aforementioned (4), and concentration of each test compound by which the inhibition ratio becomes 50% (IC50) was obtained.

CYP3A4 = CYP3A4 (Homo sapiens, UniProt P08684); test: Cytochrome P450 (3A4) Enzyme Inhibition Test; format: in vitro ADME; conditions: substrate 7-benzyloxy-4-(trifluoromethyl)cumarin, 37° C. 30 minutes; read-out: CYP3A4 inhibitory activity IC50
CYP3A4, sequence (P08684 whole entry): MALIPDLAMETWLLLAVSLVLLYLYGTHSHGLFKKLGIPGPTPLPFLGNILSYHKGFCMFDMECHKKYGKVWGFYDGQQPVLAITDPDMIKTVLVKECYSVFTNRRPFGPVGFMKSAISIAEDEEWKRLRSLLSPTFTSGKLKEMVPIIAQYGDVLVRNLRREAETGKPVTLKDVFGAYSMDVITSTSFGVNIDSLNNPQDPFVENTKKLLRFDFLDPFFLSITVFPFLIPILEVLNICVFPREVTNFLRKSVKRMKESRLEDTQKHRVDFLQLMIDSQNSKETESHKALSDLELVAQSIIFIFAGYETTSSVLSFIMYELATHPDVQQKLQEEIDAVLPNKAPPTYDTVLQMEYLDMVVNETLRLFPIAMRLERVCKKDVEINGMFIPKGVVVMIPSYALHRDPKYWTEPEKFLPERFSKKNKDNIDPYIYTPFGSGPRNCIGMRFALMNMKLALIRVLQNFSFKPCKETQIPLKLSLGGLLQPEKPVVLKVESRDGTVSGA
Protocol: (4) Cytochrome P450 (3A4) Enzyme Inhibition Test
as §2, §1

male Wistar rats = test: Antidiuretic Test (Intravenous Administration); format: in vivo; conditions: rat, 0.3 mg/kg intravenous, water loading 30 ml/kg 15 minutes later; for Urine excretion ratio (%) After 1 hour: urine until 1 hour; for Urine excretion ratio (%) After 2 hours: urine until 2 hours
Protocol: (2) Antidiuretic Test (Intravenous Administration)
Five animals per group of male Wistar rats (10 to 12 weeks of age) were used in the test. The compound of Example 3 was intravenously administered to group A at a dose of 0.3 mg/kg, and the compound of Example 9 to group B at a dose of 0.3 mg/kg, both after dissolving in a solvent (physiological saline containing DMSO), and the solvent alone at a dose of 1 ml/kg to group C as a control, and then 30 ml/kg of distilled water was orally administered by force 15 minutes thereafter (water loading). Urine samples until 2 hours after the water loading were collected using a metabolism cage, and the amount of urine when the water loading amount was defined as 100% was calculated as the urine excretion ratio. In this connection, average value of the urine excretion ratio until after 1 hour and the urine excretion ratio until after 2 hours in each group was used in the evaluation.

| Compound | Ki (human V2 receptor) | IC50 (CYP2C9) | IC50 (CYP3A4) | Urine excretion ratio (%) After 1 hour (male Wistar rats) | Urine excretion ratio (%) After 2 hours (male Wistar rats) |
| --- | --- | --- | --- | --- | --- |
| CC(C)NC(=O)C[C@H]1CCCN(C(=O)c2ccc(N3CCCC3)cc2Cl)c2ccccc21 [Comparative compound, 2-[(5R)-1-(2-chloro-4-pyrrolidin-1-ylbenzoyl)-2,3,4,5-tetrahydrobenzazepin-5-yl]-N-isopropylacetamide, reference compound] | – | < 0.091 µM | < 0.091 µM | – | – |
| CCCCOc1ccc(C(=O)N2CCC(F)(F)/C(=C\C(=O)NCC(N)=O)c3ccccc32)c(C(F)(F)F)c1 [Example 9] | 19 nM | 11 µM | 13 µM | 0% | 5.3% |
| NC(=O)CNC(=O)/C=C1/c2ccccc2N(C(=O)c2ccc(OCC3CC3)cc2C(F)(F)F)CCC1(F)F [Example 3] | 11 nM | > 50 µM | > 50 µM | 1.3% | 6.2% |
| CCCOc1ccc(C(=O)N2CCC(F)(F)/C(=C\C(=O)NCC(N)=O)c3cc(Cl)ccc32)c(C(F)(F)F)c1 [Example 24] | 4.3 nM | – | – | – | – |
| CCCOc1ccc(C(=O)N2CCC(F)(F)/C(=C\C(=O)NCCO)c3cc(F)ccc32)c(C(F)(F)F)c1 [Example 46] | 5.8 nM | – | – | – | – |
| CC(F)(F)COc1ccc(C(=O)N2CCC(F)(F)/C(=C\C(=O)NCCO)c3ccccc32)c(C(F)(F)F)c1 [Example 51, (2Z)-2-{1-[4-(2,2-difluoropropoxy)-2-(trifluoromethyl)benzoyl]-4,4-difluoro-1,2,3,4-tetrahydro-5H-1-benzazepin-5-ylidene}-N-(2-hydroxyethyl)acetamide] | – | 34 µM | > 50 µM | – | – |
| C[C@@H](F)COc1ccc(C(=O)N2CCC(F)(F)/C(=C\C(=O)NCC(N)=O)c3cc(F)ccc32)c(C(F)(F)F)c1 [Example 31, (2Z)-N-(2-amino-2-oxoethyl)-2-{4,4,7-trifluoro-1-[4-{[(2R)-2-fluoropropyl]oxy}-2-(trifluoromethyl)benzoyl]-1,2,3,4-tetrahydro-5H-1-benzazepin-5-ylidene}acetamide] | 10 nM | – | – | – | – |
| CCCN(C)c1ccc(C(=O)N2CCC(F)(F)/C(=C\C(=O)NCC(N)=O)c3ccccc32)c(C(F)(F)F)c1 [Example 14] | 18 nM | – | – | – | – |
| C[C@H](F)COc1ccc(C(=O)N2CCC(F)(F)/C(=C\C(=O)NCCO)c3cc(F)ccc32)c(C(F)(F)F)c1 [Example 54, (2Z)-N-(2-hydroxyethyl)-2-{4,4,7-trifluoro-1-[4-{[(2S)-2-fluoropropyl]oxy}-2-(trifluoromethyl)benzoyl]-1,2,3,4-tetrahydro-5H-1-benzazepin-5-ylidene}acetamide] | 17 nM | 43 µM | > 50 µM | – | – |

Second part, led by results:

| Ki (human V2 receptor) | IC50 (CYP2C9) | IC50 (CYP3A4) | Compound | Urine excretion ratio (%) After 1 hour (male Wistar rats) | Urine excretion ratio (%) After 2 hours (male Wistar rats) |
| --- | --- | --- | --- | --- | --- |
| 6.2 nM | – | – | CCCOc1ccc(C(=O)N2CCC(F)(F)/C(=C\C(=O)Nc3cccc(O)c3)c3ccccc32)c(C(F)(F)F)c1 [Example 98] | – | – |
| 12 nM | – | – | C[C@@H](F)COc1ccc(C(=O)N2CCC(F)(F)/C(=C\C(=O)NCCC(N)=O)c3cc(F)ccc32)c(C(F)(F)F)c1 [Example 134, 3-[((2Z)-2-{4,4,7-trifluoro-1-[4-{[(2R)-2-fluoropropyl]oxy}-2-(trifluoromethyl)benzoyl]-1,2,3,4-tetrahydro-5H-1-benzazepin-5-ylidene}acetyl)amino]propanamide] | – | – |
| 16 nM | – | – | C[C@@H](F)COc1ccc(C(=O)N2CCC(F)(F)/C(=C\C(=O)NCCO)c3cc(F)ccc32)c(C(F)(F)F)c1 [Example 55, (2Z)-N-(2-hydroxyethyl)-2-{4,4,7-trifluoro-1-[4-{[(2R)-2-fluoropropyl]oxy}-2-(trifluoromethyl)benzoyl]-1,2,3,4-tetrahydro-5H-1-benzazepin-5-ylidene}acetamide] | – | – |
| – | > 50 µM | > 50 µM | C[C@@H](F)COc1ccc(C(=O)N2CCC(F)(F)/C(=C\C(=O)NC[C@H](O)CO)c3ccccc32)c(C(F)(F)F)c1 [Example 130, (2Z)-2-{4,4-difluoro-1-[4-{[(2R)-2-fluoropropyl]oxy}-2-(trifluoromethyl)benzoyl]-1,2,3,4-tetrahydro-5H-1-benzazepin-5-ylidene}-N-[(2S)-2,3-dihydroxypropyl]acetamide] | – | – |
| 11 nM | > 50 µM | > 50 µM | C[C@@H](F)COc1ccc(C(=O)N2CCC(F)(F)/C(=C\C(=O)NC[C@@H](O)CO)c3cc(F)ccc32)c(C(F)(F)F)c1 [Example 136, (2Z)-N-[(2R)-2,3-dihydroxypropyl]-2-{4,4,7-trifluoro-1-[4-{[(2R)-2-fluoropropyl]oxy}-2-(trifluoromethyl)benzoyl]-1,2,3,4-tetrahydro-5H-1-benzazepin-5-ylidene}acetamide] | – | – |
